Results on two compounds are retold here after paper doi:10.1101/2024.11.06.622220v2 (biorxiv, 2024).

For test [1], the system named is JaPTAL. Kind of test: PAL activity kinetics, Michaelis-Menten. The note with it: only the range for graminid PTALs is in the text. The class given is biochemical, Joinvillea ascendens.
In test [2] the test system is JaPTAL. The note with it: read-out: apparent Km; also printed as 11.0 μM.

Read-outs that look alike come from different tables or passages of the source.

For the compound `N[C@@H](Cc1ccccc1)C(=O)O` [Phe], the Km – broadly, the substrate concentration at which the rate is half of its maximum – in the test on JaPTAL [1] came to 65.6 ± 1.4 µM.

`N[C@@H](Cc1ccc(O)cc1)C(=O)O` [Tyr]: the Km in the test on JaPTAL [2] was found to be 10.9 µM.
